In PubChem BioAssay AID651865 (The Scripps Research Institute Molecular Screening Center, 2012):

Target: Protein-arginine deiminase type-2 (Homo sapiens) (UniProt Q9Y2J8)
Assay: PubChem AID 651865
Conditions: recombinant PAD2, BAEE citrulline colorimetric, inactivation kinetics; stronger effect = higher value

Protein-arginine deiminase type-2 (Homo sapiens), sequence (Q9Y2J8 whole entry, looked up): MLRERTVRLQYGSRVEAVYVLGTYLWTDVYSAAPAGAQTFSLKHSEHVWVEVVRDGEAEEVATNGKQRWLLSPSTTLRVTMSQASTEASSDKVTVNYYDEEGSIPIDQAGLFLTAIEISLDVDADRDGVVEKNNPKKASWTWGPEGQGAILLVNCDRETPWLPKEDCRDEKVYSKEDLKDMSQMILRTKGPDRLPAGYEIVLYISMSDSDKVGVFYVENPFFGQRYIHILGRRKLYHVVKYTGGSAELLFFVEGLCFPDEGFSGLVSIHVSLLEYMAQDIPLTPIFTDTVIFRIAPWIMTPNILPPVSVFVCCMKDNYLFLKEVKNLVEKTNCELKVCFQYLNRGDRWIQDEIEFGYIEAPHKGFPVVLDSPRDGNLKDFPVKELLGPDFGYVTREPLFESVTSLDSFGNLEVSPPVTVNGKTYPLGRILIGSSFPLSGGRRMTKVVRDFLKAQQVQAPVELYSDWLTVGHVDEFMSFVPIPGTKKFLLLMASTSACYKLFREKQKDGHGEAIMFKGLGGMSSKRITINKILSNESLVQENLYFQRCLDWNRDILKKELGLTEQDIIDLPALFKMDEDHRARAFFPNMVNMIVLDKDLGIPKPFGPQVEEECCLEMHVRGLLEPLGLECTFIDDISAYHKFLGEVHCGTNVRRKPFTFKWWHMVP

For NC1=CC(=O)c2ccc(-c3cccc(C(=O)O)n3)nc2C1=O, the kinact/KI was 122 M⁻¹ s⁻¹.
